According to patent US12310944B2 (priority 2019, dated 2025):
Where two headings read alike, the source gives them in different places.

Tests used:
hBuChE = hBuChE (Homo sapiens, UniProt P06276); test: Cholinesterase inhibitory activity (DTNB/BTC), hBuChE; assay type: biochemical; conditions: mean ± SEM
PC-12 neural cell line = test: Toxicity test in PC-12 nerve cell (MTT); assay type: cell-based; conditions: PC-12 cells; for SR(%) cell survival rate, 20 μM: 20 μM compound for 24 h; for SR(%) cell survival rate, 50 μM: 50 μM compound for 24 h
Protocol: Toxicity Test in PC-12 Nerve Cell:
Drugs and reagents: Test compounds, DMEM medium (01-050-1A) purchased from Biological Industries, FBS fetal bovine serum (04-001-1A) purchased from Biological Industries, MTT thiazolyl blue reagent (KGT525500) purchased from KeyGEN BioTECH.
(§1) Instrument: THERMO Varioskan Flash full-wavelength multifunctional microplate reader.
About 3×10^3 PC-12 cells were evenly mixed in 0.1 mL of DMEM medium containing 10% FBS, and plated on a 96-well bottom plate, and incubated overnight at 37° C. in an environment containing 5% CO2. The 20 μM and 50 μM compounds diluted in 0.1 mL of DMEM medium were treated on the cells for 24 hours. Then MTT reagent was added to the well plate, and the plate was incubated at 37° C. for 2 to 4 hours. The color reaction was measured at 492 nm using a spectrophotometer (Thermo, multiskan FC).

[1] = target: T1, eqBuChE (BuChE, E.C.3.1.1.8, selected from horse serum) (Equus caballus, UniProt P81908); test: Cholinesterase inhibitory activity (DTNB/BTC), eqBuChE; assay type: biochemical
T1 construct: BuChE (E.C.3.1.1.8, selected from horse serum); purchased Sigma; host or cells: horse serum
T1 sequence (P81908 whole entry): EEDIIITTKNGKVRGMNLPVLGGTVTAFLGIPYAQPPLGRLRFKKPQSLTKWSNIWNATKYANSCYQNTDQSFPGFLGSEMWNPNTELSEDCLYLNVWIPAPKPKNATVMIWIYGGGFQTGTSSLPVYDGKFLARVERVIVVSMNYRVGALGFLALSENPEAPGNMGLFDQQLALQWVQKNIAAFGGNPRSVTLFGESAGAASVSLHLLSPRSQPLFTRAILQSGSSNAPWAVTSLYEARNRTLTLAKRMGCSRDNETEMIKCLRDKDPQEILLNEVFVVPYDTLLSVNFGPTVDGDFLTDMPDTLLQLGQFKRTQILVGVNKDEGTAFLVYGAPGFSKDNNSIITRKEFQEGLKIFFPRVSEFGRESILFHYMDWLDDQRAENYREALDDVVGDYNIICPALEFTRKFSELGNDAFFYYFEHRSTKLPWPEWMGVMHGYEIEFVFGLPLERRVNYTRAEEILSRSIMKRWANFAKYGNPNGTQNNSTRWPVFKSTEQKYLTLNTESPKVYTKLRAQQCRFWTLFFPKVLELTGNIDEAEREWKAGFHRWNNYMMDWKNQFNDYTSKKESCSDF
From the text: Determination of Cholinesterase Inhibitory Activity:
Drugs and reagents: Test compounds, AChE (E.C.3.1.1.7, Type VI-S, selected from electric eel), BuChE (E.C.3.1.1.8, selected from horse serum), 5,5′-dithiobis(2-nitrobenzoic acid) (DTNB), acetylthiocholine (ATC) iodide and butyrylthiocholine (BTC) iodide were all purchased from Sigma; the positive control tacrine hydrochloride (9-amino-1,2,3,4-tetrahydroacridine hydrochloride hydrate) was purchased from BioTrend.
as §1
(1) Formulation of buffer: 13.6 g of potassium dihydrogen phosphate was dissolved in 1 L of water, and pH was adjusted with potassium hydroxide to reach pH=8±0.1. The solution was stored at 4° C. for later use.
(2) Formulation of 0.01 M DTNB solution: 0.396 g of DTNB and 0.15 g of sodium bicarbonate were dissolved in 100 mL of water to prepare a 0.01 M DTNB solution, which was stored at −30° C. for later use.
(3) Formulation of 0.075 M ATC and BTC solutions: 0.217 g of ATC was dissolved in 10 mL of water to prepare a 0.075 M ATC solution, which was stored at −30° C. for later use; 0.237 g of BTC was dissolved in 10 mL of water to prepare a 0.075 M BTC solution, which was stored at −30° C. for later use.
(4) Formulation of AChE and BuChE solutions: 5,000 units of AChE were dissolved in 1 mL of 1% gel solution, and then diluted to 100 mL with water to prepare a AChE solution with a concentration of 5 units/mL, which was stored at −30° C. for later use; 5,000 units of BuChE were dissolved in 1 mL of 1% gel solution, and then diluted to 100 mL with water to prepare a BuChE solution with a concentration of 5 units/mL, which was stored at −30° C. for later use.
(5) Formulation of test substance solution: The test compound was dissolved in ethanol to obtain a solution with a concentration of 10^−3 M (ethanol would not affect the test results), and then diluted with water to prepare solutions with concentrations of […], 10^−5, 10^−6, 10^−7, 10^−8, 10^−9, and 10^−10 M, respectively.
Before the start of the experiment, all the solutions as used were warmed to room temperature, and the AChE and BuChE solutions were diluted 1-fold with water to prepare an enzyme solution with a concentration of 2.5 units/mL. The background UV absorbance was measured with a blank buffer (3 mL) as a subtraction value. Firstly, 100 μL of test compound solution, 100 μL of DTNB solution, and 100 μL of enzyme solution were added to 3 mL of buffer. After adding 20 μL of ATC or BTC solution to trigger the reaction, the time was recorded immediately and the test solution was mixted quickly and uniformly at the same time. After 2 minutes, the UV absorbance was measured at a wavelength of […]. The blank control group was measured with an equal volume of water instead of the test substance solution. All tests were performed three times in parallel. The UV absorption value of the blank control group was taken as 100%, the absorbance (OD value) of the test compound at each concentration was recorded, and GraphPad Prism™ (GraphPad Software, San Diego, CA, USA) software was used to analyze the results in a non-linear regression analysis model to calculate the corresponding IC50 values, as shown in Table 1.

[2] = read-out: IC50 (nM) ± SEM eqBuChE
[3] = eqBuChE, mean ± SEM, three parallel tests

Compound	IC50 (hBuChE) [nM]	SR(%) cell survival rate, 20 μM (PC-12 neural cell line) [%]	SR(%) cell survival rate, 50 μM (PC-12 neural cell line) [%]	IC50 [1, 2] [nM]	IC50 [1, 3] [nM]	inhibition at 10 µM ([1]; read-out: inhibition rate of the compound on the target at a concentration of 10 μM (eqBuChE)) [%]
CCN(CC)Cc1ccccc1CNC(=O)c1cccc(NC(=O)c2ccc(C(=O)O)cc2)c1 [Compound 13, 4-((3-((2-((diethylamino)methyl)benzyl)carbamoyl)phenyl)carbamoyl)benzoic acid]	3.4 ± 0.31	91.46	75.25	0.76 ± 0.09		
CCN(CC)Cc1ccccc1CNC(=O)c1cccc(NC(=O)c2ccc(C(C)C)cc2)c1 [Compound 24]	2.08 ± 0.73	97.02	86.21	0.58 ± 0.67		
CCN(CC)Cc1ccccc1CNC(=O)c1cccc(NC(=O)c2cccc(F)c2)c1 [Compound 17, N-(2-((diethylamino)methyl)benzyl)-3-(3-fluorobenzamido)benzamide]	25.2 ± 19.1	98.40	89.75		4.55 ± 0.74	
CCCN(CCC)Cc1ccccc1CNC(=O)c1cccc(NC(=O)c2cccs2)c1 [Compound 35, N-(3-((2-((dipropylamino)methyl)benzyl)carbamoyl)phenyl)thiophene-2-carboxamide]	0.89 ± 0.67	92.58	84.86		0.45 ± 0.04	
CCN(CC)Cc1ccccc1CNC(=O)c1cccc(NC(=O)c2ccc(C#N)cc2)c1 [Compound 31, 3-(4-cyanobenzamido)-N-(2-((diethylamino)methyl)benzyl)benzamide]	16.5 ± 15.1	94.67	91.59	15.8 ± 2.84		
CCN(CC)Cc1ccccc1CNC(=O)c1cccc(NC(=O)c2ccc[nH]2)c1 [Compound 5, N-(3-((2-((diethylamino)methyl)benzyl)carbamoyl)phenyl)-pyrrole-2-carboxamide]	2.99 ± 0.67	97.53	92.47	0.87 ± 0.03		
CCN(CC)Cc1ccccc1CNC(=O)c1cccc(NC(=O)c2ccccc2OC)c1 [Compound 28]	20 ± 2.06	95.42	85.46	5.28 ± 1.21		
CCN(CC)Cc1ccccc1CNC(=O)c1cccc(NC(=O)c2ccc(C=O)cc2)c1 [Compound 14, N-(2-((diethylamino)methyl)benzyl)-3-(4-formanilide)benzamide]	2.09 ± 0.99	86.34	81.34	0.89 ± 0.63		
CCCN(CCC)Cc1ccccc1NC(=O)c1cccc(NC(=O)c2cccs2)c1 [Compound 4, N-(3-((2-((dipropylamino)methyl)phenyl)carbamoyl)phenyl)thiophene-2-carboxamide]		87.24	79.48	122 ± 285		
CCN(CC)Cc1ccc(CNC(=O)c2cccc(NC(=O)c3cccs3)c2)cc1 [Compound 38, N-(3-((4-((diethylamino)methyl)benzyl)carbamoyl)phenyl)thiophene-2-carboxamide]	75 ± 22.9	93.67	84.23	24.7 ± 10.6		
CCN(CC)Cc1ccccc1CNC(=O)c1cccc(NC(=O)c2cccs2)c1 [Compound 1, N-(3-((2-((diethylamino)methyl)benzyl)carbamoyl)phenyl)thiophene-2-carboxamide]	0.42 ± 0.07	97.36	84.34		0.13 ± 0.01	
CCN(CC)Cc1ccccc1CNC(=O)c1cccc(NC(=O)c2ccc(C(=O)OC)cc2)c1 [Compound 29, methyl 4-((3-((2-((diethylamino)methyl)benzyl)carbamoyl)phenyl)carbamoyl)benzoate]	9.06 ± 0.74	99.42	93.32	2.48 ± 0.26		
CCN(CC)Cc1cccc(CNC(=O)c2cccc(NC(=O)c3cccs3)c2)c1 [Compound 37, N-(3-((3-((diethylamino)methyl)benzyl)carbamoyl)phenyl)thiophene-2-carboxamide]	32.9 ± 15.7	92.05	82.03	12.6 ± 0.86		
CCN(CC)Cc1ccccc1CNC(=O)c1cccc(NC(=O)c2ccc(C)c(C)c2)c1 [Compound 23, N-(3-((2-((diethylamino)methyl)benzyl)carbamoyl)phenyl)-3,4-dimethylbenzamide]	1.53 ± 0.55	85.05	80.72	0.8 ± 0.24		
CCN(CC)Cc1ccccc1CNC(=O)c1cccc(NC(=O)c2nccs2)c1 [Compound 8, N-(3-((2-((diethylamino)methyl)benzyl)carbamoyl)phenyl)-thiazole-2-carboxamide]	1.88 ± 0.52	93.57	89.42	0.75 ± 0.14		
CCN(CC)Cc1ccccc1CNC(=O)c1cccc(NC(=O)c2ccc(C(F)(F)F)cc2)c1 [Compound 25]	1.41 ± 0.01	97.58	91.57	0.38 ± 0.1		
CCN(CC)Cc1ccccc1CNC(=O)c1cccc(NC(=O)c2ccccc2)c1 [Compound 11, 3-benzamido-N-(2-((diethylamino)methyl)benzyl)benzamide]	0.99 ± 0.18	96.30	83.4	0.48 ± 0.07		
CCN(CC)Cc1ccccc1CNC(=O)c1cccc(NC(=O)c2ccc(O)cc2)c1 [Compound 12, N-(2-((diethylamino)methyl)benzyl)-3-(4-hydroxybenzamido)benzamide]	2.45 ± 0.37	91.46	89.64	0.79 ± 0.19		
CN(C)Cc1ccccc1NC(=O)c1cccc(NC(=O)c2cccs2)c1 [Compound 2, N-(3-((2-((dimethylamino)methyl)phenyl)carbamoyl)phenyl)thiophene-2-carboxamide]		94.30	91.45		1910 ± 983	
CCN(CC)Cc1ccccc1CNC(=O)c1cccc(NC(=O)C2CCCCC2)c1 [Compound 10, 3-(cyclohexanecarboxamido)-N-(2-((diethylamino)methyl)benzyl)benzamide]		90.23	83.22	122 ± 15.4		
O=C(NCc1ccccc1)c1cccc(NC(=O)c2cccs2)c1 [Compound 36]		89.57	77.42			27.2
CCN(CC)Cc1ccccc1NC(=O)c1cccc(NC(=O)c2cccs2)c1 [Compound 3, N-(3-((2-((diethylamino)methyl)phenyl)carbamoyl)phenyl)thiophene-2-carboxamide]		95.23	89.64		481 ± 110	
